This is an account of results in patent publication US9670227B2, “Thienopyrimidine derivatives, a process for their preparation and pharmaceutical compositions containing them” (LES LABORATOIRES SERVIER, priority 2013, dated 2017).

The experiment addresses Mcl-1 protein (UniProtKB primary accession number: Q07820) (Homo sapiens, UniProt Q07820). Description: Inhibition of Mcl-1 by fluorescence polarisation, Method 1. Particulars: for IC50: fluorescence polarisation, Method 1, or Method 2, read-out: IC50 (M) Mcl-1 FP; for percentage fluorescence polarisation inhibition, Mcl-1 FP: partial inhibitors, @ 1 uM test compound. It is filed as binding. A digest of the protocol: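 Buffer of 10 mM HEPES pH 7.4 with 150 mM NaCl and 0.05% Tween 20 held 5 nM Mcl-1 and 1 nM fluorescein-tagged ligand (final). Compounds were tested as 11-point serial dilutions at 5% final DMSO, and binding was read by FP.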
(Fluorescence polarisation rises when a labelled molecule tumbles more slowly, as on binding a larger partner.)

Sequence of Mcl-1 protein (Q07820 whole entry): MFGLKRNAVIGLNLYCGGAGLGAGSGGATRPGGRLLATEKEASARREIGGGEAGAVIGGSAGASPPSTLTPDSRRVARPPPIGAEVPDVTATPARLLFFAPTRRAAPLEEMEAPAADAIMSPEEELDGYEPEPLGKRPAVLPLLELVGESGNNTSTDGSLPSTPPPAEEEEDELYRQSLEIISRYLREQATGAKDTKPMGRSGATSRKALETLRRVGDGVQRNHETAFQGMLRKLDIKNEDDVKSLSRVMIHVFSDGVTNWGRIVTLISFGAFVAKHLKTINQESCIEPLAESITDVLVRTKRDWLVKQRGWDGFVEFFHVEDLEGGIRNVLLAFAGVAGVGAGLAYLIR

As usually defined, the IC50 is the concentration that gives 50% inhibition. As for `COc1nccc(COc2ccccc2CC(Oc2ncnc3sc(-c4ccc(F)c(OCCN5CCN(C)CC5)c4)c(-c4ccc(OC)c(Cl)c4C)c23)C(=O)O)n1` [Example 698, (2R)-2-{[(5Sa)-5-(3-chloro-4-methoxy-2-methylphenyl)-6-{4-fluoro-3-[2-(4-methylpiperazin-1-yl)ethoxy]phenyl}thieno[2,3-d]pyrimidin-4-yl]oxy}-3-{2-[(2-methoxypyrimidin-4-yl)methoxy]phenyl}propanoic acid], the IC50 worked out at 7.3e-09 M.
As for `COc1nccc(COc2ccccc2C[C@@H](Oc2ncnc3sc(-c4ccc(F)c(OCCN5CCOCC5)c4)c(-c4ccc(OC)c(Cl)c4C)c23)C(=O)O)n1` [Example 699, (2R)-2-{[(5Ra)-5-(3-chloro-4-methoxy-2-methylphenyl)-6-{4-fluoro-3-[2-(morpholin-4-yl)ethoxy]phenyl}thieno[2,3-d]pyrimidin-4-yl]oxy}-3-{2-[(2-methoxypyrimidin-4-yl)methoxy]phenyl}propanoic acid], the “percentage fluorescence polarisation inhibition, Mcl-1 FP” value stood at 28.5% @ 1 uM.
Consider `COc1nccc(COc2ccccc2CC(Oc2ncnc3sc(-c4ccc(F)c(OCCN5CCOCC5)c4)c(-c4ccc(OC)c(Cl)c4C)c23)C(=O)O)n1` [Example 700, (2R)-2-{[(5Sa)-5-(3-chloro-4-methoxy-2-methylphenyl)-6-{4-fluoro-3-[2-(morpholin-4-yl)ethoxy]phenyl}thieno[2,3-d]pyrimidin-4-yl]oxy}-3-{2-[(2-methoxypyrimidin-4-yl)methoxy]phenyl}propanoic acid], for which the IC50 came out at 1.2e-08 M.
As to `COc1nccc(COc2ccccc2C[C@@H](Oc2ncnc3sc(-c4ccc(F)c(OCCN(C)C)c4)c(-c4ccc(OC)c(Cl)c4C)c23)C(=O)O)n1` [Example 701, (2R)-2-{[(5Ra)-5-(3-chloro-4-methoxy-2-methylphenyl)-6-{3-[2-(dimethylamino)ethoxy]-4-fluorophenyl}thieno[2,3-d]pyrimidin-4-yl]oxy}-3-{2-[(2-methoxypyrimidin-4-yl)methoxy]phenyl}propanoic acid], the “percentage fluorescence polarisation inhibition, Mcl-1 FP” value is given as 40.75% @ 1 uM.
For `COc1nccc(COc2ccccc2CC(Oc2ncnc3sc(-c4ccc(F)c(OCCN(C)C)c4)c(-c4ccc(OC)c(Cl)c4C)c23)C(=O)O)n1` [Example 702, (2R)-2-{[(5Sa)-5-(3-chloro-4-methoxy-2-methylphenyl)-6-{3-[2-(dimethylamino)ethoxy]-4-fluorophenyl}thieno[2,3-d]pyrimidin-4-yl]oxy}-3-{2-[(2-methoxypyrimidin-4-yl)methoxy]phenyl}propanoic acid], the IC50 stood at 9.4e-09 M.
`Cc1c(-c2c(-c3cnn(C)c3)sc3ncnc(OC(Cc4ccccc4)C(=O)O)c23)ccc(OCCN2CCOCC2)c1Cl` [Example 712, (2R)-2-{[(5Sa)-5-{3-chloro-2-methyl-4-[2-(morpholin-4-yl)ethoxy]phenyl}-6-(1-methyl-1H-pyrazol-4-yl)thieno[2,3-d]pyrimidin-4-yl]oxy}-3-phenylpropanoic acid]: the IC50 was 4.1e-07 M.
In the case of `COc1ccccc1CC(Oc1ncnc2sc(-c3cccc(OCCN4CCN(C)CC4)c3)c(-c3ccc(OC)c(Cl)c3C)c12)C(=O)O` [Example 713, (2R)-2-{[(5Sa)-5-(3-chloro-4-methoxy-2-methylphenyl)-6-{3-[2-(4-methylpiperazin-1-yl)ethoxy]phenyl}thieno[2,3-d]pyrimidin-4-yl]oxy}-3-(2-methoxyphenyl)propanoic acid], the IC50 is 1.6e-08 M.
As for `COc1ccccc1CC(Oc1ncnc2sc(-c3ccsc3)c(-c3ccc(O)c(Cl)c3C)c12)C(=O)O` [Example 715, (2R)-2-{[(5Sa)-5-(3-chloro-4-hydroxy-2-methylphenyl)-6-(thiophen-3-yl)thieno[2,3-d]pyrimidin-4-yl]oxy}-3-(2-methoxyphenyl)propanoic acid], the IC50 amounted to 1.6e-09 M.
Same read-out and setting: under `C=Cc1sc2ncnc(OC(Cc3ccccc3)C(=O)O)c2c1-c1cccc(Cl)c1C` [Example 721, (2R)-2-{[(5Sa)-5-(3-chloro-2-methylphenyl)-6-ethenylthieno[2,3-d]pyrimidin-4-yl]oxy}-3-phenylpropanoic acid] stands 7.6e-08 M; under `Cc1c(-c2c(-c3ccc(F)cc3)sc3ncnc(O[C@H](Cc4ccccc4OCc4ccnc(-c5ccccc5CO)n4)C(=O)O)c23)ccc(OCCN2CCN(C)CC2)c1Cl` [Example 728, (2R)-2-{[(5Sa)-5-{3-chloro-2-methyl-4-[2-(4-methylpiperazin-1-yl)ethoxy]phenyl}-6-(4-fluorophenyl)thieno[2,3-d]pyrimidin-4-yl]oxy}-3-[2-({2-[2-(hydroxymethyl)phenyl]pyrimidin-4-yl}methoxy)phenyl]propanoic acid], 1.18e-09 M; under `COc1cnc(C)cc1-c1nccc(COc2ccccc2CC(Oc2ncnc3sc(-c4ccc(F)cc4)c(-c4ccc(OCCN5CCN(C)CC5)c(Cl)c4C)c23)C(=O)O)n1` [Example 734, (2R)-2-{[(5Sa)-5-{3-chloro-2-methyl-4-[2-(4-methylpiperazin-1-yl)ethoxy]phenyl}-6-(4-fluorophenyl)thieno[2,3-d]pyrimidin-4-yl]oxy}-3-(2-{[2-(5-methoxy-2-methylpyridin-4-yl)pyrimidin-4-yl]methoxy}phenyl)propanoic acid], 9.48e-10 M.
The same measure, in the same setting: in the case of `Cc1c(-c2c(-c3ccc(F)cc3)sc3ncnc(OC(Cc4ccccc4OCc4ccnn4Cc4ccncc4)C(=O)O)c23)ccc(OCCN2CCN(C)CC2)c1Cl` [Example 736, (2R)-2-{[(5Sa)-5-{3-chloro-2-methyl-4-[2-(4-methylpiperazin-1-yl)ethoxy]phenyl}-6-(4-fluorophenyl)thieno[2,3-d]pyrimidin-4-yl]oxy}-3-(2-{[1-(pyridin-4-ylmethyl)-1H-pyrazol-5-yl]methoxy}phenyl)propanoic acid] it was 2.58e-09 M; in that of `COc1ccccc1-n1ccc(COc2ccccc2CC(Oc2ncnc3sc(-c4ccc(F)cc4)c(-c4ccc(OCCN5CCN(C)CC5)c(Cl)c4C)c23)C(=O)O)n1` [Example 737, (2R)-2-{[(5Sa)-5-{3-chloro-2-methyl-4-[2-(4-methylpiperazin-1-yl)ethoxy]phenyl}-6-(4-fluorophenyl)thieno[2,3-d]pyrimidin-4-yl]oxy}-3-(2-{[1-(2-methoxyphenyl)-1H-pyrazol-3-yl]methoxy}phenyl)propanoic acid], 1.43e-08 M; in that of `COc1ccccc1Cn1ccc(COc2ccccc2CC(Oc2ncnc3sc(-c4ccc(F)cc4)c(-c4ccc(OCCN5CCN(C)CC5)c(Cl)c4C)c23)C(=O)O)n1` [Example 740, (2R)-2-{[(5Sa)-5-{3-chloro-2-methyl-4-[2-(4-methylpiperazin-1-yl)ethoxy]phenyl}-6-(4-fluorophenyl)thieno[2,3-d]pyrimidin-4-yl]oxy}-3-(2-{[1-(2-methoxybenzyl)-1H-pyrazol-3-yl]methoxy}phenyl)propanoic acid], 5.04e-09 M.
The same measure, in the same setting: in the case of `Cc1c(-c2c(-c3ccc(F)cc3)sc3ncnc(OC(Cc4ccccc4OCc4ccnc(-c5ccccc5F)n4)C(=O)O)c23)ccc(OCCN(C)C2CC2)c1Cl` [Example 748, (2R)-2-{[(5Sa)-5-(3-chloro-4-{2-[cyclopropyl(methyl)amino]ethoxy}-2-methylphenyl)-6-(4-fluorophenyl)thieno[2,3-d]pyrimidin-4-yl]oxy}-3-(2-{[2-(2-fluorophenyl)pyrimidin-4-yl]methoxy}phenyl)propanoic acid] it was 1.21e-08 M; in that of `Cc1c(-c2c(-c3ccc(F)cc3)sc3ncnc(O[C@H](Cc4ccccc4OCc4ccnc(-c5ccccc5O)n4)C(=O)O)c23)ccc(OCCN2CCNCC2)c1Cl` [Example 749, (2R)-2-{[(5Sa)-5-{3-chloro-2-methyl-4-[2-(piperazin-1-yl)ethoxy]phenyl}-6-(4-fluorophenyl)thieno[2,3-d]pyrimidin-4-yl]oxy}-3-(2-{[2-(2-hydroxyphenyl)pyrimidin-4-yl]methoxy}phenyl)propanoic acid], 8.24e-09 M.
With `Cc1c(-c2c(-c3ccc(OCc4ccn(C)n4)cc3)sc3ncnc(OC(Cc4ccccc4OCC(F)(F)F)C(=O)O)c23)ccc(OCCN2CCN(C)CC2)c1Cl` [Example 780, (2R)-2-[((5Sa)-5-{3-chloro-2-methyl-4-[2-(4-methylpiperazin-1-yl)ethoxy]phenyl}-6-{4-[(1-methyl-1H-pyrazol-3-yl)methoxy]phenyl}thieno[2,3-d]pyrimidin-4-yl)oxy]-3-[2-(2,2,2-trifluoroethoxy)phenyl]propanoic acid], the half-inhibitory concentration (IC50) amounted to 7.26e-09 M.
In the case of `COc1ccccc1-c1nccc(COc2ccccc2CC(Oc2ncnc3sc(C#CCCN4CCOCC4)c(-c4ccc(OCCN5CCN(C)CC5)c(Cl)c4C)c23)C(=O)O)n1` [Example 785, (2R)-2-[((5Sa)-5-{3-chloro-2-methyl-4-[2-(4-methylpiperazin-1-yl)ethoxy]phenyl}-6-[4-(morpholin-4-yl)but-1-yn-1-yl]thieno[2,3-d]pyrimidin-4-yl)oxy]-3-(2-{[2-(2-methoxyphenyl)pyrimidin-4-yl]methoxy}phenyl)propanoic acid], the IC50 worked out at 3.85e-09 M.
On the same count and under the same terms, under `COc1ccccc1-c1nccc(COc2ccccc2CC(Oc2ncnc3sc(C#CCN4CCOCC4)c(-c4ccc(OCCN5CCN(C)CC5)c(Cl)c4C)c23)C(=O)O)n1` [Example 786, (2R)-2-[((5Sa)-5-{3-chloro-2-methyl-4-[2-(4-methylpiperazin-1-yl)ethoxy]phenyl}-6-[3-(morpholin-4-yl)prop-1-yn-1-yl]thieno[2,3-d]pyrimidin-4-yl)oxy]-3-(2-{[2-(2-methoxyphenyl)pyrimidin-4-yl]methoxy}phenyl)propanoic acid] stands 4.95e-09 M; under `CCOC(=O)C(Cc1ccccc1OCc1ccnn1C(C)(C)C)Oc1ncnc2sc(-c3ccc(F)cc3)c(-c3ccc(OCCN4CCN(C)CC4)c(Cl)c3C)c12` [Example 791, ethyl (2R)-3-{2-[(1-tert-butyl-1H-pyrazol-5-yl)methoxy]phenyl}-2-{[(5Sa)-5-{3-chloro-2-methyl-4-[2-(4-methylpiperazin-1-yl)ethoxy]phenyl}-6-(4-fluorophenyl)thieno[2,3-d]pyrimidin-4-yl]oxy}propanoate], 2.26e-06 M.
